Where “and” joins values, the source holds several entries; their conditions need not be identical. Identical values can stand only once.
Tested on: Aedes aegypti
Experiment: Examination of repellent activity using skin test (treated human forearm in cage of about 100 mated female mosquitoes)
Type: in vivo
Conditions: for Effective repellency duration (hour) (mean ± standard deviation): maximum measurement time 12 hours
Excerpt: Citronellic acid and geranic acid, which are used in the present invention, are commercially available or can directly be synthesized. In this embodiment, products of Aldrich Co. (product names are respectively Citronellic acid and Geranic acid) were purchased and used as citronellic acid and geranic acid. Purities of the above two compounds were examined using a gas chromatograph (GC) and a gas chromatograph-mass spectrometry (GC-MS). The compounds having purity of 99.5% or greater were only used. Respective ingredients of the above compounds were added to isopropyl alcohol of 91% to make test samples consisting of a solution in the concentration of 0.5 to 50%. The samples were used for mosquito repellent efficacy experiments.
The test samples manufactured as above underwent repellent effective experiments with respect to Aedes which is a main mosquito group attacking human.
In this embodiment, Aedes aegypti was used as test mosquitoes. The Aedes aegypti was supplied from Korea Research Institute of Bioscience and Biotechnology and reared indoor from generation to generation.
The larvae of the Aedes aegypti were reared in a plastic container of 22×14×7 cm containing distilled water with small amount of one-to-one mixture of chicken feed and yeast. Fresh mosquito pupae were transferred into a paper cup containing water and then placed in a transparent rearing cage to emerge as adults. Here, the rearing cage was constructed with metal net. Males and females of the freshly emerged mosquitoes were transferred to a rearing cage at one-to-one ratio, and left for two or three days for mating. The female mosquitoes were then used for repellency tests. Eight percent (8%) sugar water was supplied for the adult mosquitoes. The following rearing conditions were maintained: light condition of 16 h:8 h (day:night), temperature of 27±2° C., and relative humidity of 80±10%.
In order to examine effectiveness of the mosquito repellent of the prepared sample solutions, one (1) ml of a sample solution was uniformly applied, using a metal rod, on a forearm of a volunteer human test subject between wrist and elbow. Thereafter, the arm treated with the test solution was inserted in a bioassay cage, constructed with Plexiglass of 50×50×50 cm containing approximately 100 mated female mosquitoes. The number of mosquitoes trying to bite was recorded for three minutes in every thirty minutes for up to 4 hours or in every hour for up to 12 hours. The time required to get the arm bitten by two cumulative mosquitoes was regarded as effective repellency duration. A net window of 40×40 cm was present at each side and top of the Plexiglass bioassay cage to allow air ventilation. A 15×15 cm hole was prepared at the front side of the Plexiglass bioassay cage and a long net sleeve was attached to the hole so that the test arm could be put into the cage for repellency test.
At the beginning of each repellency test, an arm treated with no solvent was placed in the bioassay cage containing mosquitoes, in order to examine blood feeding activity of the mated female test mosquitoes. The repellency tests with the test solutions were carried out only when the arm was bitten by at least two mosquitoes for initial three minutes.
Repellent activity against Aedes was examined in accordance with the aforementioned method using the samples which respectively contain citronellic acid and geranic acid. Also, mosquito repellent activity was measured with solutions which contain DEET and Picadirin, wherein the DEET and Picadirin are commercially available mosquito repellents which are currently recommended by the Center for Disease Control of the United States.
In Table 4 to Table 6, the repellent efficiency was calculated using the following Equation 1.

[1] = 10% (0.25 mg/cm^3), 120 minutes
[2] = 10% (0.25 mg/cm^3), 150 minutes
[3] = 10% (0.25 mg/cm^3), 180 minutes
[4] = 10% (0.25 mg/cm^3), 210 minutes
[5] = 10% (0.25 mg/cm^3), 240 minutes
[6] = concentration 2% (0.05 mg/cm^3), time until arm bitten by two cumulative mosquitoes
[7] = concentration 10% (0.25 mg/cm^3), time until two cumulative bites, maximum measurement time 240 minutes

CC(C)=CCC/C(C)=C/C(=O)O [Geranic acid, geranic acid]
Repellent efficiency (%) per time (minutes) (2% (0.05 mg/cm^3), 30 minutes): 100%
Repellent efficiency (%) per time (minutes) (2% (0.05 mg/cm^3), 60 minutes): 100%
Repellent efficiency (%) per time (minutes) (2% (0.05 mg/cm^3), 90 minutes): 100%
Repellent efficiency (%) per time (minutes) (2% (0.05 mg/cm^3), 120 minutes): 100%
Repellent efficiency (%) per time (minutes) (2% (0.05 mg/cm^3), 150 minutes): 83.3%
Repellent efficiency (%) per time (minutes) (2% (0.05 mg/cm^3), 180 minutes): 50.0%
Repellent efficiency (%) per time (minutes) (2% (0.05 mg/cm^3), 210 minutes): 50.0%
Repellent efficiency (%) per time (minutes) (2% (0.05 mg/cm^3), 240 minutes): 33.3%
Repellent efficiency (%) per time (minutes) (10% (0.25 mg/cm^3), 30 minutes): 100%
Repellent efficiency (%) per time (minutes) (10% (0.25 mg/cm^3), 60 minutes): 100%
Repellent efficiency (%) per time (minutes) (10% (0.25 mg/cm^3), 90 minutes): 100%
Repellent efficiency (%) per time (minutes) [1]: 100%
Repellent efficiency (%) per time (minutes) [2]: 100%
Repellent efficiency (%) per time (minutes) [3]: 100%
Repellent efficiency (%) per time (minutes) [4]: 100%
Repellent efficiency (%) per time (minutes) [5]: 87.5%
Repellent efficiency (%) per time (hours) (15% (0.375 mg/cm^3), 1 hour): 100%
Repellent efficiency (%) per time (hours) (15% (0.375 mg/cm^3), 2 hours): 100%
Repellent efficiency (%) per time (hours) (15% (0.375 mg/cm^3), 3 hours): 100%
Repellent efficiency (%) per time (hours) (15% (0.375 mg/cm^3), 4 hours): 81.8%
Repellent efficiency (%) per time (hours) (15% (0.375 mg/cm^3), 5 hours): 72.7%
Repellent efficiency (%) per time (hours) (15% (0.375 mg/cm^3), 6 hours): 54.5%
Repellent efficiency (%) per time (hours) (15% (0.375 mg/cm^3), 7 hours): 54.5%
Repellent efficiency (%) per time (hours) (15% (0.375 mg/cm^3), 8 hours): 54.5%
Repellent efficiency (%) per time (hours) (15% (0.375 mg/cm^3), 9 hours): 45.5%
Repellent efficiency (%) per time (hours) (30% (0.75 mg/cm^3), 1 hour): 100%
Repellent efficiency (%) per time (hours) (30% (0.75 mg/cm^3), 2 hours): 100%
Repellent efficiency (%) per time (hours) (30% (0.75 mg/cm^3), 3 hours): 100%
Repellent efficiency (%) per time (hours) (30% (0.75 mg/cm^3), 4 hours): 100%
Repellent efficiency (%) per time (hours) (30% (0.75 mg/cm^3), 5 hours): 100%
Repellent efficiency (%) per time (hours) (30% (0.75 mg/cm^3), 6 hours): 85.7%
Repellent efficiency (%) per time (hours) (30% (0.75 mg/cm^3), 7 hours): 85.7%
Repellent efficiency (%) per time (hours) (30% (0.75 mg/cm^3), 8 hours): 85.7%
Repellent efficiency (%) per time (hours) (30% (0.75 mg/cm^3), 9 hours): 85.7%
Repellent efficiency (%) per time (hours) (30% (0.75 mg/cm^3), 10 hours): 85.7%
Repellent efficiency (%) per time (hours) (30% (0.75 mg/cm^3), 11 hours): 78.6%
Repellent efficiency (%) per time (hours) (30% (0.75 mg/cm^3), 12 hours): 71.4%
Repellent efficiency (%) per time (hours) (50% (1.25 mg/cm^3), 1 hour): 100%
Repellent efficiency (%) per time (hours) (50% (1.25 mg/cm^3), 2 hours): 100%
Repellent efficiency (%) per time (hours) (50% (1.25 mg/cm^3), 3 hours): 100%
Repellent efficiency (%) per time (hours) (50% (1.25 mg/cm^3), 4 hours): 100%
Repellent efficiency (%) per time (hours) (50% (1.25 mg/cm^3), 5 hours): 100%
Repellent efficiency (%) per time (hours) (50% (1.25 mg/cm^3), 6 hours): 100%
Repellent efficiency (%) per time (hours) (50% (1.25 mg/cm^3), 7 hours): 100%
Repellent efficiency (%) per time (hours) (50% (1.25 mg/cm^3), 8 hours): 100%
Repellent efficiency (%) per time (hours) (50% (1.25 mg/cm^3), 9 hours): 100%
Repellent efficiency (%) per time (hours) (50% (1.25 mg/cm^3), 10 hours): 100%
Repellent efficiency (%) per time (hours) (50% (1.25 mg/cm^3), 11 hours): 90%
Repellent efficiency (%) per time (hours) (50% (1.25 mg/cm^3), 12 hours): 80%
repellency (in words) (at the level of 0.0125 mg/cm^3): did not represent any repellency
time for which repellent efficiency of 100% was shown (at the level of 0.05 mg/cm^3): 120 min
time for which repellent efficiency of 100% was shown (at the level of 0.25 mg/cm^3): 210 min
Effective repellency duration (minute) (mean ± standard deviation) (concentration 0.5% (0.0125 mg/cm^3), time until arm bitten by two cumulative mosquitoes): 0 ± 0 min
Effective repellency duration (minute) (mean ± standard deviation) [6]: 195 ± 45.0 min
Effective repellency duration (minute) (mean ± standard deviation) (concentration 2% (0.05 mg/cm^3), time until arm bitten by two cumulative mosquitoes, listed as geranic acid): 195 min
Effective repellency duration (minute) (mean ± standard deviation) [7]: 240 ± 0 min
Effective repellency duration (minute) (mean ± standard deviation) (concentration 10% (0.25 mg/cm^3), time until two cumulative bites, maximum measurement time 240 minutes, listed as geranic acid): 240 min
Effective repellency duration (hour) (mean ± standard deviation) (concentration 15% (0.375 mg/cm^3)): 6.7 ± 1.20 h
Effective repellency duration (hour) (mean ± standard deviation) (concentration 30% (0.75 mg/cm^3)): 10.0 ± 2.00 h
Effective repellency duration (hour) (mean ± standard deviation) (concentration 30% (0.75 mg/cm^3), listed as geranic acid): 10 h
Effective repellency duration (hour) (mean ± standard deviation) (concentration 50% (1.25 mg/cm^3)): 12.0 ± 0 h
Effective repellency duration (hour) (mean ± standard deviation) (concentration 50% (1.25 mg/cm^3), listed as geranic acid): 12 h
repellent efficiency (for 10 hours at the level of 0.75 mg/cm^3): ~90%
repellent efficiency (for 10 hours at the level of 1.25 mg/cm^3): 100%

CCN(CC)C(=O)c1cccc(C)c1 [DEET, N,N-diethyl-m-toluamide, reference compound]
Repellent efficiency (%) per time (minutes) (2% (0.05 mg/cm^3), 30 minutes): 100%
Repellent efficiency (%) per time (minutes) (2% (0.05 mg/cm^3), 60 minutes): 0%
Repellent efficiency (%) per time (minutes) (2% (0.05 mg/cm^3), 90 minutes): 0%
Repellent efficiency (%) per time (minutes) (2% (0.05 mg/cm^3), 120 minutes): 0%
Repellent efficiency (%) per time (minutes) (2% (0.05 mg/cm^3), 150 minutes): 0%
Repellent efficiency (%) per time (minutes) (2% (0.05 mg/cm^3), 180 minutes): 0%
Repellent efficiency (%) per time (minutes) (2% (0.05 mg/cm^3), 210 minutes): 0%
Repellent efficiency (%) per time (minutes) (2% (0.05 mg/cm^3), 240 minutes): 0%
Repellent efficiency (%) per time (minutes) (10% (0.25 mg/cm^3), 30 minutes): 100%
Repellent efficiency (%) per time (minutes) (10% (0.25 mg/cm^3), 60 minutes): 100%
Repellent efficiency (%) per time (minutes) (10% (0.25 mg/cm^3), 90 minutes): 100%
Repellent efficiency (%) per time (minutes) [1]: 100%
Repellent efficiency (%) per time (minutes) [2]: 87.5%
Repellent efficiency (%) per time (minutes) [3]: 81.3%
Repellent efficiency (%) per time (minutes) [4]: 78.1%
Repellent efficiency (%) per time (minutes) [5]: 71.9%
time for which repellent efficiency of 100% was shown (at the level of 0.25 mg/cm^3): 120 min
Effective repellency duration (minute) (mean ± standard deviation) [6]: 70 min and 70 ± 10.0 min
Effective repellency duration (minute) (mean ± standard deviation) [7]: 218 min and 218 ± 10.8 min

From patent US8841343B2, “Composition for repelling mosquitoes” (Bio & Hnt, Inc., priority 2006, dated 2014)
